Results: patent US20070191356A1, “Pyridobenzoxazine derivative” (priority 2004, published 2007)
≈ marks a conversion by molar mass, not a printed value. Like-named read-outs stand apart in the source and are kept apart here.

What was measured:
Str. pneumoniae, J24 = test: Antimicrobial activity MIC, standard method of Japanese Society of Chemotherapy; type: cell-based
Protocol: (§1) The antimicrobial activity of the compounds of the present invention is measured in accordance with the standard method designated by Japanese Society of Chemotherapy and MIC (microgram/ml) values are shown as its results in Table 1.

Ser. marcescens, 10100 = test: as above; type: cell-based
Protocol: as §1

S. maltophilia, IID-1275 = test: as above; type: cell-based
Protocol: as §1

S. aureus, 209P = test: as above; type: cell-based
Protocol: as §1

Ps. aeruginosa, 32121 = test: as above; type: cell-based
Protocol: as §1

S. flexneri, 2A 5503 = test: as above; type: cell-based
Protocol: as §1

K. pneumoniae, Type I = test: as above; type: cell-based
Protocol: as §1

[1] = test system: Str. faecalis, ATCC-19433; test: as above; type: cell-based
Protocol: as §1

S. epidermidis, 56500 = test: as above; type: cell-based
Protocol: as §1

E. coli, NIHJ = test: as above; type: cell-based
Protocol: as §1

S. aureus, 870307 = test: as above; type: cell-based
Protocol: as §1

Str. pyogenes, G-36 = test: as above; type: cell-based
Protocol: as §1

Pr. vulgalis, 08601 = test: as above; type: cell-based
Protocol: as §1

Ps. aeruginosa, 32104 = test: as above; type: cell-based
Protocol: as §1

Slc:ddY male mice = test: Single intravenous dosing toxicity test in mice; type: in vivo; conditions: single intravenous dose 150 mg/kg, six-week-old Slc:ddY male mice
Protocol: The single intravenous dosing toxicity test in mice using the invention compound was carried out in the following manner. The compound was dissolved in and diluted with 0.1 mol/l NaOH/physiological saline. After the diluted solution was sterilized by filtration through a 0.22 μm filter of Millex GS, the resulting sterilized solution was intravenously administered to six-week-old Slc:ddY male mice at an administration rate of 10 ml/kg or 0.2 ml/min as a single dose. Similar to Test 1, the compound obtained in Example 2 of Patent Document 2 was employed as a comparative compound.

[2] = Streptococcus pneumoniae, J24, Str. pneumoniae, read-out: MIC
[3] = Serratia marcescens, 10100, Ser. marcescens, read-out: MIC
[4] = Stenotrophomonas maltophilia, IID1275, S. maltophilia, read-out: MIC
[5] = Staphylococcus aureus, read-out: MIC
[6] = Pseudomonas aeruginosa, 32121, Ps. aeruginosa, read-out: MIC
[7] = Klebsiella pneumoniae, read-out: MIC
[8] = Enterococcus faecalis, ATCC19433, Str. faecalis, read-out: MIC
[9] = Staphylococcus epidermidis, 56500, S. epidermidis, read-out: MIC
[10] = Pseudomonas aeruginosa, 32104, Ps. aeruginosa, read-out: MIC
[11] = Ps. aeruginosa, listed as Ex. 3
[12] = Shigella flexneri, 2A5503, S. flexneri, read-out: MIC
[13] = Escherichia coli, read-out: MIC
[14] = Staphylococcus aureus, 870307, S. aureus, read-out: MIC
[15] = Streptococcus pyogenes, G36, Str. pyogenes, read-out: MIC

C[C@H]1COc2c(N3CC(N)C(C(F)F)C3)c(F)cc3c(=O)c(C(=O)O)cn1c23 (single isomer, unassigned) [Example 2]
melting point: 247 to 252 °C
MIC (Str. pneumoniae, J24; [2]): 0.2 mg/L (≈ 0.503 µM)
MIC (Ser. marcescens, 10100; [3]): 0.05 mg/L (≈ 0.126 µM)
MIC (S. maltophilia, IID-1275; [4]): 0.2 mg/L (≈ 0.503 µM)
MIC (S. aureus, 209P; [5]): 0.025 mg/L (≈ 0.0629 µM)
MIC (Ps. aeruginosa, 32121; [6]): 0.05 mg/L (≈ 0.126 µM)
MIC (S. flexneri, 2A 5503; S. flexneri, listed as Ex. 2): 0.012 microgram/ml
MIC (K. pneumoniae, Type I; [7]): 0.05 mg/L (≈ 0.126 µM)
MIC [1, 8]: 0.39 mg/L (≈ 0.981 µM)
MIC (S. epidermidis, 56500; [9]): 0.1 mg/L (≈ 0.252 µM)
MIC (E. coli, NIHJ; listed as Ex. 2): ≦0.003 microgram/ml
MIC (S. aureus, 870307; S. aureus, listed as Ex. 2): 1.56 microgram/ml
MIC (Str. pyogenes, G-36; Str. pyogenes, listed as Ex. 2): 0.2 microgram/ml
MIC (Pr. vulgalis, 08601; listed as Ex. 2): 0.012 microgram/ml
MIC (Ps. aeruginosa, 32104; [10]): 0.2 mg/L (≈ 0.503 µM)

C[C@H]1COc2c(N3CC(N)C(C(F)F)C3)c(F)cc3c(=O)c(C(=O)O)cn1c23 (single isomer, unassigned) [Example 3]
melting point: 264 to 268 °C
MIC (Str. pneumoniae, J24; Str. pneumoniae, listed as Ex. 3): 0.39 microgram/ml
MIC (Ser. marcescens, 10100; Ser. marcescens, listed as Ex. 3): 0.1 microgram/ml
MIC (S. maltophilia, IID-1275; S. maltophilia, listed as Ex. 3): 0.39 microgram/ml
MIC (S. aureus, 209P; listed as Ex. 3): 0.05 microgram/ml
MIC (Ps. aeruginosa, 32121; [11]): 0.1 microgram/ml
MIC (S. flexneri, 2A 5503; S. flexneri, listed as Ex. 3): 0.025 microgram/ml
MIC (K. pneumoniae, Type I; listed as Ex. 3): 0.1 microgram/ml
MIC ([1]; Str. faecalis, listed as Ex. 3): 0.78 microgram/ml
MIC (S. epidermidis, 56500; S. epidermidis, listed as Ex. 3): 0.2 microgram/ml
MIC (E. coli, NIHJ; listed as Ex. 3): 0.012 microgram/ml
MIC (S. aureus, 870307; S. aureus, listed as Ex. 3): 3.13 microgram/ml
MIC (Str. pyogenes, G-36; Str. pyogenes, listed as Ex. 3): 0.78 microgram/ml
MIC (Pr. vulgalis, 08601; listed as Ex. 3): 0.025 microgram/ml
MIC (Ps. aeruginosa, 32104; [11]): 0.39 microgram/ml

O=C(O)c1cn(C2CC2)c2cc(N3CCNCC3)c(F)cc2c1=O [CPFX, ciprofloxacin, reference compound]
MIC (Str. pneumoniae, J24; [2]): 0.1 mg/L (≈ 0.302 µM)
MIC (Ser. marcescens, 10100; [3]): 0.025 mg/L (≈ 0.0754 µM)
MIC (S. maltophilia, IID-1275; [4]): 0.78 mg/L (≈ 2.35 µM)
MIC (S. aureus, 209P; [5]): 0.1 mg/L (≈ 0.302 µM)
MIC (Ps. aeruginosa, 32121; [6]): 0.025 mg/L (≈ 0.0754 µM)
MIC (S. flexneri, 2A 5503; [12]): 0.006 mg/L (≈ 0.0181 µM)
MIC (K. pneumoniae, Type I; [7]): 0.025 mg/L (≈ 0.0754 µM)
MIC [1, 8]: 0.78 mg/L (≈ 2.35 µM)
MIC (S. epidermidis, 56500; [9]): 0.2 mg/L (≈ 0.604 µM)
MIC (E. coli, NIHJ; [13]): ≤ 0.003 mg/L
MIC (S. aureus, 870307; [14]): 3.13 mg/L (≈ 9.45 µM)
MIC (Str. pyogenes, G-36; [15]): 1.56 mg/L (≈ 4.71 µM)
MIC (Pr. vulgalis, 08601; read-out: MIC): ≤ 0.003 mg/L
MIC (Ps. aeruginosa, 32104; [10]): 0.005 mg/L (≈ 0.0151 µM)

COc1c(N2C[C@H](CF)[C@H](N)C2)c(F)cc2c(=O)c(C(=O)O)cn(C3CC3)c12 [Comparative Compound, reference compound]
MIC (Str. pneumoniae, J24; [2]): 0.025 mg/L (≈ 0.0636 µM)
MIC (Ser. marcescens, 10100; [3]): 0.05 mg/L (≈ 0.127 µM)
MIC (S. maltophilia, IID-1275; [4]): 0.05 mg/L (≈ 0.127 µM)
MIC (S. aureus, 209P; [5]): 0.012 mg/L (≈ 0.0305 µM)
MIC (Ps. aeruginosa, 32121; [6]): 0.05 mg/L (≈ 0.127 µM)
MIC (S. flexneri, 2A 5503; [12]): 0.006 mg/L (≈ 0.0153 µM)
MIC (K. pneumoniae, Type I; [7]): 0.025 mg/L (≈ 0.0636 µM)
MIC [1, 8]: 0.1 mg/L (≈ 0.254 µM)
MIC (S. epidermidis, 56500; [9]): 0.05 mg/L (≈ 0.127 µM)
MIC (E. coli, NIHJ; [13]): ≤ 0.003 mg/L
MIC (S. aureus, 870307; [14]): 0.39 mg/L (≈ 0.991 µM)
MIC (Str. pyogenes, G-36; [15]): 0.1 mg/L (≈ 0.254 µM)
MIC (Pr. vulgalis, 08601; read-out: MIC): 0.006 mg/L (≈ 0.0153 µM)
MIC (Ps. aeruginosa, 32104; [10]): 0.2 mg/L (≈ 0.508 µM)
Number of deaths/total number (Slc:ddY male mice; 150 mg/kg): 3/5
Number of deaths/total number (Slc:ddY male mice; listed as comparative compound, 150 mg/kg): three of five mice died

C[C@H]1COc2c(N3C[C@H](CF)[C@H](N)C3)c(F)cc3c(=O)c(C(=O)O)cn1c23 [Example 1, 10-[3-(S)-Amino-4-(S)-fluoromethylpyrrolidin-1-yl]-9-fluoro-2,3-dihydro-3-(S)-methyl-7-oxo-7H-pyridol-[1,2,3-de][1,4]benzoxazine-6-carboxylic acid]
MIC (Str. pneumoniae, J24; [2]): 0.1 mg/L (≈ 0.264 µM)
MIC (Ser. marcescens, 10100; [3]): 0.05 mg/L (≈ 0.132 µM)
MIC (S. maltophilia, IID-1275; [4]): 0.39 mg/L (≈ 1.03 µM)
MIC (S. aureus, 209P; [5]): 0.025 mg/L (≈ 0.0659 µM)
MIC (Ps. aeruginosa, 32121; [6]): 0.025 mg/L (≈ 0.0659 µM)
MIC (S. flexneri, 2A 5503; [12]): 0.012 mg/L (≈ 0.0316 µM)
MIC (K. pneumoniae, Type I; [7]): 0.05 mg/L (≈ 0.132 µM)
MIC [1, 8]: 0.2 mg/L (≈ 0.527 µM)
MIC (S. epidermidis, 56500; [9]): 0.1 mg/L (≈ 0.264 µM)
MIC (E. coli, NIHJ; [13]): 0.006 mg/L (≈ 0.0158 µM)
MIC (S. aureus, 870307; [14]): 1.56 mg/L (≈ 4.11 µM)
MIC (Str. pyogenes, G-36; [15]): 0.2 mg/L (≈ 0.527 µM)
MIC (Pr. vulgalis, 08601; read-out: MIC): 0.012 mg/L (≈ 0.0316 µM)
MIC (Ps. aeruginosa, 32104; [10]): 0.1 mg/L (≈ 0.264 µM)
Number of deaths/total number (Slc:ddY male mice): 0/5

C[C@H]1COc2c(N3CCN(C)CC3)c(F)cc3c(=O)c(C(=O)O)cn1c23 [LVFX, levofloxacin, reference compound]
MIC (Str. pneumoniae, J24; [2]): 0.78 mg/L (≈ 2.16 µM)
MIC (Ser. marcescens, 10100; [3]): 0.1 mg/L (≈ 0.277 µM)
MIC (S. maltophilia, IID-1275; [4]): 0.39 mg/L (≈ 1.08 µM)
MIC (S. aureus, 209P; [5]): 0.2 mg/L (≈ 0.553 µM)
MIC (Ps. aeruginosa, 32121; [6]): 0.1 mg/L (≈ 0.277 µM)
MIC (S. flexneri, 2A 5503; [12]): 0.025 mg/L (≈ 0.0692 µM)
MIC (K. pneumoniae, Type I; [7]): 0.1 mg/L (≈ 0.277 µM)
MIC [1, 8]: 0.78 mg/L (≈ 2.16 µM)
MIC (S. epidermidis, 56500; [9]): 0.39 mg/L (≈ 1.08 µM)
MIC (E. coli, NIHJ; [13]): 0.12 mg/L (≈ 0.332 µM)
MIC (S. aureus, 870307; [14]): > 6.25 mg/L
MIC (Str. pyogenes, G-36; [15]): 0.2 mg/L (≈ 0.553 µM)
MIC (Pr. vulgalis, 08601; read-out: MIC): 0.012 mg/L (≈ 0.0332 µM)
MIC (Ps. aeruginosa, 32104; [10]): 0.2 mg/L (≈ 0.553 µM)
